Values joined by “and” are separate entries in the source; they are usually repeats but may differ in a detail not shown here. Identical values can stand only once. Like-named read-outs stand apart in the source and are kept apart here. Starred links: 1 amine or outer side, 2 acyl side, 3 side chain; linkers in the order of their positions; H or OH if unused. Positions of bridges follow the written chain, without caps; N, C: chain ends. Non-standard residues stand in square brackets, D forms with d. Residues, ends and D or L forms follow the SMILES beside them. Chains are numbered I, II in the order given. Actinocin(9to1) = Cc1c2oc3c(C)ccc(C(=O)[*:1])c3nc-2c(C(=O)[*:2])c(N)c1=O; NMeV = CN[C@H](C(=O)O)C(C)C; Sar = CNCC(=O)O
What was measured:
[1] = tested on: Medial smooth muscle cells (SMC); experiment: Inhibition of SMC proliferation, thymidine incorporation; type: cell-based; conditions: Rattus norvegicus, read-out: IC50 (concentration at which 50% of the cells stop proliferating)
Description: Medial smooth muscle cells (SMC) were isolated from rat aorta and cultured according to explant methods known to one of ordinary skill in the art. Cells were harvested via trypsinization and subcultivated. Cells were identified as vascular SMC through their characteristic hill-and-valley growth pattern as well as indirect immunofluorescence with monoclonal anti SMC α-actin. Studies were performed with cells at passage 3-4. SMC monolayers were established on 24 well culture dishes, scrape wounded and treated with actinomycin D, mytomycin and docetaxel. The cells were exposed to the drug solution of different concentrations for 2 hours and then washed with buffered saline solution. The proliferation of the cells was quantified by standard technique of thymidine incorporation.
The IC50 (concentration at which 50% of the cells stop proliferating) of actimomycin D was 10^−9M as compared to 5×10^−5M for mitomycin and 10^−6M for docetaxel.

[2] = tested on: Porcine Coronary Artery Model; experiment: Reduction in restenosis in the porcine coronary artery model, drug delivered with microporous balloon catheter; type: in vivo, Domestic swine; conditions: for Percent Diameter Stenosis (QCA): 28-day endpoint; for Percent Stenosis (IEL area-lumen area)/IEL area / Residual Lumen (Lumen area)/IEL area: histomorphometric
Description: Porcine coronary models were used to assess the degree of the inhibition of neointimal formation in the coronary arteries of a porcine stent injury model by actinomycin D, delivered with a microporous balloon catheter (1×10^6 pores/mm^2 with sizes ranging from 0.2-0.8 micron).
The preclinical animal testing was performed in accordance with the NIH Guide for Care and Use of Laboratory Animals. Domestic swine were utilized to evaluate effect of the drug on the inhibition of the neointimal formation. Each testing procedure, excluding the angiographic analysis at the follow-up endpoints, was conducted using sterile techniques. During the study procedure, the activated clotting time (ACT) was monitored regularly to ensure appropriate anticoagulation. Base line blood samples were collected for each animal before initiation of the procedure. Quantitative coronary angiographic analysis (QCA) and intravascular ultrasound (IVUS) analysis was used for vessel size assessment.
The vessels at the sites of the delivery were denuded by inflation of the PTCA balloons to 1:1 balloon to artery ratio and moving the balloons back and forth 5 times. The drug was delivered to the denuded sites at 3.5 atm (3.61 Kg/sq cm) for 2 minutes using the microporous balloon catheters before stent deployment. The average volume of delivery was about 3.3+/−1.2 ml. Following drug delivery, stents were deployed at the delivery site such that final stent to artery ratio was 1.1:1.
QCA and IVUS analyses were used for stent deployment guidance. Pre-stenting IVUS measurements of the lumen size at the targeted vessel sites were performed for determination of the balloon (size) inflation pressure. Quantitative analysis of the stented coronary arteries to compare pre-stenting, post-stenting, follow-up minimal luminal diameters, stent recoil, and balloon/stent to artery ratio were performed. Following stent implantation and final angiogram, all devices were withdrawn and the wounds closed; the animals were allowed to recover from anesthesia as managed by the attending veterinarian or animal care professionals at the research center.
Upon return to the research laboratory at the 28-day endpoint, angiographic assessments were performed. Coronary artery blood flow was assessed and the stented vessels were evaluated to determine minimal lumen diameter. The animals were euthanized following this procedure at the endpoint. Following euthanasia, the hearts were pressure perfusion fixed with formalin and prepared for histological analysis, encompassing light microscopy, and morphometry. Morphometric analysis of the stented arteries included assessment of the position of the stent struts and determination of vessel/lumen areas, percent (%) stenosis, injury scores, intimal and medial areas and intima/media ratios. Percent stenosis is quantitated by the following equation: 100(IEL area−lumen area)/IEL area
where IEL is the internal elastic lamia.
The control group of animals received delivery of water instead of the drug. The test group of animals received actinomycin D in two different concentration of 10^−5M and 10^−4M. […] FIGS. 9A and 9B illustrate sample pictures of the histology slides of the coronary vessels from the control and the Dose 1 group, respectively.

[3] = tested on: porcine coronary arteries; experiment: Positive remodeling: actinomycin D/EVOH coated stents in porcine coronary arteries, 28 days; type: in vivo
Excerpt: In vivo data is provided illustrated positive remodeling caused by the application of actinomycin D. Stents coated with EVOH impregnated with actinomycin D and a control group of stents coated with EVOH free from actinomycin D were implanted in porcine coronary arteries. The animals were sacrificed at the end of 28 days. […] The index of remodeling was 1.076 (8.54/7.94).
FIGS. 10A and 10B illustrate sample pictures of the histology slides of the coronary vessels from the control group 64 RCA (Right Coronary […]) and the actinomycin D loaded stent group 68 LAD (Left Anterior Descending), respectively. The stent used was an Advanced Cardiovascular Systems Multi-Link Duet™ (stainless steel). As is illustrated by FIG. 10B, the positive remodeling of EEL 80, caused by the application of actinomycin D, creates a gap between stent struts 82 and EEL 80. Thrombus deposits, illustrated by reference number 84, are formed in the gap over time. The use of a self-expandable stent eliminates the formation of the gap as the stent self-expands in response to the positive remodeling of IEL. Thrombus deposits can be, accordingly, eliminated.
Actinomycin D induces the positive remodeling of the vessel walls, more particularly positive remodeling of the external elastic lamina (EEL) of a blood vessel wall. Positive remodeling is generally defined as the ability of the vessel walls to structurally adapt, by increasing in lumen size, to chronic stimuli. A positively remodeled lumen wall has a greater diameter or size as compared to a lumen wall which has not been subjected to the remodeling effect. Accordingly, the flow of blood through the remodeled site is increased—flow which would have otherwise been reduced because of, for example, the presence of plaque build-up or migration and proliferation of cells. The index of remodeling is defined by the ratio of the area circumscribed by the EEL of the lesion site to the area circumscribed by the EEL of a reference site. As a result of the positive remodeling of the EEL, the internal elastic lamina (IEL), in response, can also increases in area or diameter. Actinomycin D, or analogs or derivative thereof, not only can inhibit abnormal or inappropriate migration and/or proliferation of smooth muscle cells, which can lead to restenosis, but can also induce positive remodeling of the blood vessel walls. Thus the widening of the diseased region becomes more pronounced.

[4] = 24 hour elution of vinblastine from EVOH coated stents in phosphated saline solution, HPLC; type: physicochemical; conditions: for Total microgram Released / microgram Release per Hour / microgram Released: Unsterilized stent
Description: Multi-Link™ stents were cleaned by placement in an ultrasonic bath of isopropyl alcohol solution for 10 minutes. The stents were dried and plasma cleaned in a plasma chamber. An EVOH solution was made with 1 gram of EVOH and 7 grams of DMSO, making an EVOH:DMSO ratio of 1:7. Vinblastine was added to the 1:7 EVOH:DMSO solution. Vinblastine constituted 2.5% by weight of the total weight of the solution. The solution was vortexed and placed in a tube. The cleaned Multi-Link™ stents were attached to mandrel wires and dipped into the solution. The coated stents were passed over a hot plate, for about 3-5 seconds, with a temperature setting of about 60° C. The coated stents were cured for 6 hours in an air box then placed in a vacuum oven at 60° C. for 24 hours. The above process was repeated twice, having a total of three layers. The average weight of the coating was 0.00005 gram, with an estimated vinblastine concentration of 12 microgram per stent. Some of the stents were sterilized by electron beam radiation. The sterilized and unsterilized vinblastine coated stents were tested for a 24 hour elution period by placing one sterilized and one unsterilized stent in 5 ml of phosphated saline solution (pH 7.4) at room temperature with rotational motion. The amount of vinblastine eluted was evaluated by High Performance Liquid Chromatography (HPLC) analysis. The results of this test are given below and plotted in FIG. 7.

[5] = average of vessel sections, 28 days
[6] = individual vessel sections (ID # animal, artery, d/m/p), 28 days
[7] = 2 hours drug exposure, scrape wounded SMC monolayers, passage 3-4
[8] = Sterilized stent, Time 0.5 Hours
[9] = Sterilized stent, Time 24 Hours

Compound: Cc1c2oc3c(C)ccc(C(=O)N[C@@H]4C(=O)N[C@H](C(C)C)C(=O)N5CCC[C@H]5C(=O)N(C)CC(=O)N(C)[C@@H](C(C)C)C(=O)O[C@@H]4C)c3nc-2c(C(=O)N[C@@H]2C(=O)N[C@H](C(C)C)C(=O)N3CCC[C@H]3C(=O)N(C)CC(=O)N(C)[C@@H](C(C)C)C(=O)O[C@@H]2C)c(N)c1=O [actinomycin D] (I: T[dV]P[Sar][NMeV] / II: T[dV]P[Sar][NMeV]; ester I:1-I:C, II:1-II:C; linker I:N-II:N via Actinocin(9to1))
- IC50 ([1]; 2 h): 1 nM
- Percent Diameter Stenosis (QCA) ([2]; DOSE 1 1E−05M (n = 10)): 36.8 +/− 9.7%
- Percent Diameter Stenosis (QCA) ([2]; DOSE 2 1E−04M (n = 7)): 32.3+/−11.7%
- Percent Stenosis (IEL area-lumen area)/IEL area ([2]; DOSE 1 1E−05M (n = 30)): 51.8 +/− 13.8%
- Residual Lumen (Lumen area)/IEL area ([2]; DOSE 1 1E−05M (n = 30)): 0.49 +/− 0.14
- Percent Stenosis (IEL area-lumen area)/IEL area ([2]; DOSE 2 1E−04M (n = 21)): 54.1 +/− 11.7%
- Residual Lumen (Lumen area)/IEL area ([2]; DOSE 2 1E−04M (n = 21)): 0.46 +/− 0.08
- AVG % EEL growth ([3]; ActD vs EVOH): 7.486%
- AVG % IEL growth ([3]; ActD vs EVOH): 13.18%
- index of remodeling ([3]; EEL area drug coated / EVOH control (8.54/7.94), 28 days): 1.076
- EEL Area AVG [3, 5]: 8.5425 mm^2
- IEL Area AVG [3, 5]: 7.4727 mm2
- EEL Area [3, 6]: 9.2545 mm^2 and 9.2515 mm^2 and 8.7854 mm^2 and 9.5164 mm^2 and 9.1504 mm^2 and 9.6679 mm^2 and 9.1237 mm^2 and 9.9849 mm^2 and 9.4765 mm^2 and 7.4424 mm^2 and 9.1462 mm^2 and 8.9504 mm^2 and 8.9117 mm^2 and 8.7533 mm^2 and 7.3249 mm^2 and 7.1061 mm^2 and 8.5830 mm^2 and 7.4498 mm^2 and 8.2509 mm^2 and 7.7342 mm^2 and 7.9207 mm^2 and 6.9926 mm^2 and 8.3883 mm^2 and 7.8546 mm^2
- IEL Area [3, 6]: 8.3785 mm2 and 8.5819 mm2 and 8.0964 mm2 and 8.6879 mm2 and 8.0914 mm2 and 8.7181 mm2 and 8.0273 mm2 and 8.5222 mm2 and 8.3796 mm2 and 6.4219 mm2 and 7.7757 mm2 and 7.5392 mm2 and 7.6573 mm2 and 6.9749 mm2 and 6.2815 mm2 and 5.9760 mm2 and 7.6195 mm2 and 6.3785 mm2 and 7.5206 mm2 and 6.9992 mm2 and 6.9632 mm2 and 6.0418 mm2 and 7.4794 mm2 and 6.2324 mm2

Compound: CC(=O)O[C@@]12CO[C@@H]1C[C@H](O)[C@@]1(C)C(=O)[C@H](O)C3=C(C)[C@@H](OC(=O)[C@H](O)[C@@H](NC(=O)OC(C)(C)C)c4ccccc4)C[C@@](O)([C@@H](OC(=O)c4ccccc4)[C@H]21)C3(C)C [docetaxel]
- IC50 [1, 7]: 1000 nM

Compound: CO[C@@]12[C@H](COC(N)=O)C3=C(C(=O)C(C)=C(N)C3=O)N1C[C@@H]1N[C@@H]12 [mitomycin]
- IC50 [1, 7]: 50000 nM

Compound: CC[C@]1(O)C[C@@H]2CN(CCc3c([nH]c4ccccc34)[C@@](C(=O)OC)(c3cc4c(cc3OC)N(C)[C@H]3[C@@](O)(C(=O)OC)[C@H](OC(C)=O)[C@]5(CC)C=CCN6CC[C@]43[C@@H]65)C2)C1 [Vinblastine]
- μg Release ([4]; Sterilized (electron beam) stent, Time 0 Hours): 0 µg
- Total μg Released ([4]; Sterilized stent, Time 0 Hours): 0 µg
- μg Release per Hour ([4]; Sterilized stent, Time 0 Hours): 0 μg per Hour
- Total μg Released [4, 8]: 2.14 µg
- μg Release [4, 8]: 2.14 µg
- μg Release per Hour [4, 8]: 4.28 μg per Hour
- Total μg Released ([4]; Sterilized stent, Time 3 Hours): 3.84 µg
- μg Release ([4]; Sterilized stent, Time 3 Hours): 1.7 µg
- μg Release per Hour ([4]; Sterilized stent, Time 3 Hours): 0.68 μg per Hour
- Total μg Released ([4]; Sterilized stent, Time 4 Hours): 4.12 µg
- μg Release ([4]; Sterilized stent, Time 4 Hours): 0.28 µg
- μg Release per Hour ([4]; Sterilized stent, Time 4 Hours): 0.28 μg per Hour
- Total μg Released ([4]; Sterilized stent, Time 6 Hours): 4.38 µg
- μg Release ([4]; Sterilized stent, Time 6 Hours): 0.26 µg
- μg Release per Hour ([4]; Sterilized stent, Time 6 Hours): 0.13 μg per Hour
- Total μg Released [4, 9]: 6.43 µg
- μg Release [4, 9]: 2.05 µg
- μg Release per Hour [4, 9]: 0.11 μg per Hour
- Total microgram Released ([4]; Time 0 Hours): 0 microgram
- microgram Release per Hour ([4]; Time 0 Hours): 0 microgram per Hour
- microgram Released ([4]; Time 0 Hours, pH 7.4, room temperature): 0 microgram
- Total microgram Released ([4]; Time 0.5 Hours): 2.12 microgram
- microgram Release per Hour ([4]; Time 0.5 Hours): 4.24 microgram per Hour
- microgram Released ([4]; Time 0.5 Hours): 2.12 microgram
- Total microgram Released ([4]; Time 3 Hours): 4.03 microgram
- microgram Release per Hour ([4]; Time 3 Hours): 0.76 microgram per Hour
- microgram Released ([4]; Time 3 Hours): 1.91 microgram
- Total microgram Released ([4]; Time 4 Hours): 4.30 microgram
- microgram Release per Hour ([4]; Time 4 Hours): 0.27 microgram per Hour
- microgram Released ([4]; Time 4 Hours): 0.27 microgram
- Total microgram Released ([4]; Time 6 Hours): 4.68 microgram
- microgram Release per Hour ([4]; Time 6 Hours): 0.19 microgram per Hour
- microgram Released ([4]; Time 6 Hours): 0.38 microgram
- Total microgram Released ([4]; Time 24 Hours): 6.38 microgram
- microgram Release per Hour ([4]; Time 24 Hours): 0.09 microgram per Hour
- microgram Released ([4]; Time 24 Hours): 1.7 microgram

Reference: US8586125B2, “Thermal treatment of an implantable medical device” (Advanced Cardiovascular Systems, Inc., priority 1999, dated 2013)
